Test results from PubChem BioAssay AID743429 (Vanderbilt Specialized Chemistry Center, 2014).
Calls of active or inactive are those of the source. How the calls were made is not given here.

Target: Metabotropic glutamate receptor 1 (Homo sapiens) (UniProt Q13255)
Experiment: mGlu1 agonist response modulation at 10 µM, profiling panel, selectivity assay for mGlu8/mGlu7 PAM project, cell-based, calcium fluorescence, agonist curve fold shift (AID 743429)
Settings: mGlu1 cells, Fluo-4 calcium flux

Sequence of Metabotropic glutamate receptor 1 (Homo sapiens) (Q13255 whole entry, looked up): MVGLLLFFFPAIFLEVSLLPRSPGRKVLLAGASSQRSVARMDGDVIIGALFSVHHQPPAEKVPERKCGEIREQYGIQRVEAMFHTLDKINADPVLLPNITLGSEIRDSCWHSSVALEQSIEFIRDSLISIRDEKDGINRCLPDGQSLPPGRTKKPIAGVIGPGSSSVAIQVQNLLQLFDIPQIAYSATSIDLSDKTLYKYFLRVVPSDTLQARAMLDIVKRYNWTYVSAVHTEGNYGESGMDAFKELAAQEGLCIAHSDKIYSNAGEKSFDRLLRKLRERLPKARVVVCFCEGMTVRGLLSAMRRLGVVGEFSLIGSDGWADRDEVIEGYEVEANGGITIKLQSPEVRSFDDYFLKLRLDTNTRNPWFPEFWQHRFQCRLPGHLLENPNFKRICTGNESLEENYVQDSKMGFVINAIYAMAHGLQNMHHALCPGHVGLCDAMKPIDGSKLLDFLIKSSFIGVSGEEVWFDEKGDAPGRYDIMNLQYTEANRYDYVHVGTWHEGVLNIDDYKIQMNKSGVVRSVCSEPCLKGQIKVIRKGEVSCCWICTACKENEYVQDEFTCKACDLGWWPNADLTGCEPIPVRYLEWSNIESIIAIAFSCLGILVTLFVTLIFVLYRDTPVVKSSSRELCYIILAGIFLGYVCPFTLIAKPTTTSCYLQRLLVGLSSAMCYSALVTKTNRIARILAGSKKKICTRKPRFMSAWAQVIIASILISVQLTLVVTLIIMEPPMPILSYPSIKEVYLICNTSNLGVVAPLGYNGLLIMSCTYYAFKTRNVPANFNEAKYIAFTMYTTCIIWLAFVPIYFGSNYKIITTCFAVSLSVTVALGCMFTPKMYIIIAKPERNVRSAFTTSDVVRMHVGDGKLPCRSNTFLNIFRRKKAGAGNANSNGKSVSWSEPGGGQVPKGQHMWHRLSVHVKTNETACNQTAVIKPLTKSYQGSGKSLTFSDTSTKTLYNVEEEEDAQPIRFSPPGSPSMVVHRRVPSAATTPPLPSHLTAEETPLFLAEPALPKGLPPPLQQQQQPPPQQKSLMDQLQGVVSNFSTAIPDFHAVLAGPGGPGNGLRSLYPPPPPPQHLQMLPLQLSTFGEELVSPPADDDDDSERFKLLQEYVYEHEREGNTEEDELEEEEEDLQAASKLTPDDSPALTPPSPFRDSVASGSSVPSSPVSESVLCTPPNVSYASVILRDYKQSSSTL

fold shift: 1.04 (inactive)
SMILES: COC(=O)c1ccc(-n2c(C)cc(C(=O)CSc3ccc(NC(C)=O)cc3)c2C)cc1
